Experimental data reported in article PMC5223195, “Novel long-chain compounds with both immunomodulatory and MenA inhibitory activities against Staphylococcus aureus and its biofilm” (Scientific Reports, 2017).
≈ marks a conversion by molar mass, not a printed value. Like-named read-outs stand apart in the source and are kept apart here.

Experiments:
MRSA USA100 = assay: MIC against MRSA USA100; assay type: cell-based, Staphylococcus aureus; details: Staphylococcus aureus, read-out: MIC, Staphylococcus aureus isolate USA100
Method: (§1) 96-well plates were seeded with 5 × 10^5 CFU/mL in a volume of 100 μL of tryptic soy broth (TSB) per well for Staphylococcus aureus assays. Compounds were dissolved in DMSO and serially diluted as 1:2 dilutions to give the final concentration ranging from 0.25 to 128 μg/mL per well. […] Plates were incubated at 37 °C for 18–20 hours and MIC was determined by reading OD625. For M.avium and M.abscessus, 7H9 broth media was used for determination of MICs. The final concentration was 5 × 10^5 CFU/mL in each well. The plate was incubated at 37 °C for 7–8 days and MICs were determined using a Tecan microplate reader (OD625) and resazurin reduction assay.

MRSA USA200 = assay: MIC against MRSA USA200; assay type: cell-based, Staphylococcus aureus; details: for MIC: Staphylococcus aureus, read-out: MIC, Staphylococcus aureus isolate USA200
Method: as §1

MRSA USA300 = assay: MIC against MRSA USA300; assay type: cell-based, Staphylococcus aureus; details: Staphylococcus aureus; TSB, 37 °C, 18–20 hours; read-out: MIC, Staphylococcus aureus isolate USA300
Method: as §1

MRSA USA400 = assay: MIC against MRSA USA400; assay type: cell-based, Staphylococcus aureus; details: TSB, 37 °C, 18–20 hours; for MIC: Staphylococcus aureus, read-out: MIC, Staphylococcus aureus isolate USA400
Method: as §1

MRSA USA500 = assay: MIC against MRSA USA500; assay type: cell-based, Staphylococcus aureus; details: TSB, 37 °C, 18–20 hours; for MIC: Staphylococcus aureus, read-out: MIC, Staphylococcus aureus isolate USA500
Method: as §1

MRSA USA700 = assay: MIC against MRSA USA700; assay type: cell-based, Staphylococcus aureus; details: for MIC: Staphylococcus aureus, read-out: MIC, Staphylococcus aureus isolate USA700
Method: as §1

MRSA USA800 = assay: MIC against MRSA USA800; assay type: cell-based, Staphylococcus aureus; details: Staphylococcus aureus; TSB, 37 °C, 18–20 hours; read-out: MIC, Staphylococcus aureus isolate USA800
Method: as §1

[1] = test system: Methicillin susceptible Staphylococcus aureus; assay: MIC against MSSA; assay type: cell-based; details: for MIC: MSSA
Method: as §1

Enterococcus faecalis = assay: MIC against Enterococcus faecalis; assay type: cell-based; details: read-out: MIC, EF
Pseudomonas aeruginosa = assay: MIC against Pseudomonas aeruginosa; assay type: cell-based; details: read-out: MIC, PA
Mycobacterium avium = assay: MIC against Mycobacterium avium; assay type: cell-based; details: 7H9 broth, 7–8 days
Method: as §1

Mycobacterium abscessus = assay: MIC against Mycobacterium abscessus; assay type: cell-based; details: Mycobacteroides abscessus, 7H9 broth, 7–8 days
Method: as §1

Gram-positive bacteria = assay: MIC against Gram-positive bacteria (summary); assay type: cell-based; details: range over all tested Gram-positive bacteria
Method: as §1

| Structure (SMILES) | MIC (MRSA USA100; TSB, 37 °C, 18–20 hours) [µg/mL] | MIC (MRSA USA300) [µg/mL] | MIC (MRSA USA400) [µg/mL] | MIC (MRSA USA700; TSB, 37 °C, 18–20 hours) [µg/mL] | MIC [1] [µg/mL] | MIC (Pseudomonas aeruginosa) [µg/mL] | MIC (Enterococcus faecalis) [µg/mL] | MIC (MRSA USA700) [µg/mL] | other results |
| --- | --- | --- | --- | --- | --- | --- | --- | --- | --- |
| COc1ccc2ccc(OCCCCCCCCNCCc3ccc(Cl)cc3)cc2c1 [3b] | 6 (≈ 13.6 µM) | 6 (≈ 13.6 µM) | 4 (≈ 9.09 µM) | 8 (≈ 18.2 µM) | 4 (≈ 9.09 µM) | > 64 | 0.5 (≈ 1.14 µM) | – | MIC (MRSA USA200; TSB, 37 °C, 18–20 hours): 2 µg/mL (≈ 4.55 µM); MIC (MRSA USA500): 8 µg/mL (≈ 18.2 µM); MIC (MRSA USA800): 6 µg/mL (≈ 13.6 µM); MIC (Mycobacterium avium): 4 µg/mL (≈ 9.09 µM); MIC (Mycobacterium abscessus): 12 µg/mL (≈ 27.3 µM); MIC values against all Gram-positive bacteria (range) (Gram-positive bacteria): 0.5 to 16 µg/mL |
| COc1ccc2ccc(OCCCCCCCCN3CCc4ccccc4C3)cc2c1 [3d] | – | – | – | – | – | – | – | – | MIC, Staphylococcus aureus isolate USA200 (MRSA USA200; TSB, 37 °C, 18–20 hours): >128 µg/mL; MIC, Staphylococcus aureus isolate USA400 (MRSA USA400): 64 µg/mL (≈ 153 µM); MIC, Staphylococcus aureus isolate USA500 (MRSA USA500): 128 µg/mL (≈ 307 µM); MIC, Staphylococcus aureus isolate USA700 (MRSA USA700; TSB, 37 °C, 18–20 hours): 32 µg/mL (≈ 76.6 µM); MIC, MSSA [1]: 32 µg/mL (≈ 76.6 µM) |
| COc1ccc2ccc(OCCCCCCCCN3CCN(c4ccc(F)cc4)CC3)cc2c1 [3e] | – | – | – | – | – | – | > 128 | > 128 | – |
| COc1ccc2ccc(OCCCCCCCCn3c4ccccc4c4ccccc43)cc2c1 [3f] | – | – | – | – | – | – | – | > 128 | MIC (MRSA USA100): > 128 µg/mL |
| COc1ccc2ccc(OCCCCCCCCN3C(=O)OC[C@@H]3Cc3ccccc3)cc2c1 [3g] | – | – | > 128 | > 128 | > 128 | > 128 | – | – | – |
| COc1ccc2ccc(OCCCCCCCCN3CCC(F)CC3)cc2c1 [3i] | – | – | – | – | – | – | – | > 128 | – |
| C=CCN(C)CCCOC/C=C/COc1ccc2ccc(OC)cc2c1 [4a] | – | – | – | – | – | – | – | 128 (≈ 360 µM) | MIC (MRSA USA200): 128 µg/mL (≈ 360 µM) |
| COc1ccc2ccc(OC/C=C/COCCCN3CCCCC3)cc2c1 [4b] | – | – | – | – | – | > 128 | – | 128 (≈ 346 µM) | – |

Second part, led by results:

| MIC (MRSA USA100; TSB, 37 °C, 18–20 hours) [µg/mL] | MIC (MRSA USA300) [µg/mL] | MIC (MRSA USA400) [µg/mL] | MIC (MRSA USA700; TSB, 37 °C, 18–20 hours) [µg/mL] | MIC [1] [µg/mL] | MIC (Pseudomonas aeruginosa) [µg/mL] | Structure (SMILES) | MIC (Enterococcus faecalis) [µg/mL] | MIC (MRSA USA700) [µg/mL] | other results |
| --- | --- | --- | --- | --- | --- | --- | --- | --- | --- |
| – | – | > 128 | > 128 | > 128 | > 128 | COc1ccc2ccc(OCCCCCCCCN[C@@H]3CCOC3=O)cc2c1 [3h] | – | – | – |
| 8 (≈ 18.9 µM) | 8 (≈ 18.9 µM) | 8 (≈ 18.9 µM) | 16 (≈ 37.8 µM) | 16 (≈ 37.8 µM) | > 64 | COc1ccc2ccc(OC/C=C/COCCCNCCc3ccc(F)cc3)cc2c1 [4c] | – | – | MIC (MRSA USA500): 16 µg/mL (≈ 37.8 µM); MIC (MRSA USA800): 16 µg/mL (≈ 37.8 µM); MIC (Mycobacterium avium): 8 µg/mL (≈ 18.9 µM) |
| 16 (≈ 33.9 µM) | 4 (≈ 8.47 µM) | 8 (≈ 16.9 µM) | 4 (≈ 8.47 µM) | – | – | Fc1ccc(CCNCCCCCCCCOc2ccc3cc(Br)ccc3c2)cc1 [5a] | 2 (≈ 4.23 µM) | – | MIC (MRSA USA200; TSB, 37 °C, 18–20 hours): 4 µg/mL (≈ 8.47 µM) |
| > 128 | 32 (≈ 65.5 µM) | 64 (≈ 131 µM) | 64 (≈ 131 µM) | – | – | Clc1ccc(CCNCCCCCCCCOc2ccc3cc(Br)ccc3c2)cc1 [5b] | 16 (≈ 32.7 µM) | – | MIC (MRSA USA200; TSB, 37 °C, 18–20 hours): 16 µg/mL (≈ 32.7 µM) |
